# In patent US20250255771A1, “OPHTHALMIC DEVICES FOR MANAGEMENT OF WATER VAPOR TRANSMISSIBILITY, DELIVERY OF PHARMACEUTICAL AGENTS, AND NON-SURGICAL CORNEAL RESHAPING” (OCULAR SURFACE INNOVATIONS INC., priority 2024, published 2025):
# Legend:
# [1] = same polydimethylsiloxane devices; stated as known; cited from earlier work
# [2] = Selective transfer of molecules through ultrahigh Dk lens material; assay type: physicochemical; conditions: ultrahigh Dk lens material selective to molecules by size
# Excerpt: The inventors discovered an ultrahigh Dk lens material that is selective to the transfer of molecules based on their size. […] The material has value in reverse osmosis systems because of its selective permeability. Its transmissibility may be regulated by the thickness profile of the ophthalmic device or may be further regulated by the addition of surface modification or fillers within the substrate of the material that produce selective permeability related to polar surface area or the molecular weight of a permeant.
# [3] = Retention of permeants under polydimethylsiloxane devices during wearing; conditions: devices 14.3 mm overall diameter, thickness greater than 0.400 mm; not found in device substrate after removal or in pre device tear film during wearing
transfer through the material [2],SMILES,transmissibility through the devices [1],retention of permeant behind the device (permeation through device) [3]
,CCO [ethanol],high transmissibility,
will transfer,O=O [oxygen],high transmissibility,
,O=C([O-])c1ccccc1-c1c2ccc(=O)cc-2oc2cc([O-])ccc12.[Na+].[Na+] [sodium fluorescein],,retained in the post lens tear space
will transfer,O [water vapor],high transmissibility,

SMILES,transfer through the material [2],transmissibility through the devices [1],retention of permeant behind the device (permeation through device) [3]
[Cl-].[Na+] [sodium chloride],will not transfer,,
